Experimental data published in the NIST ThermoML archive (doi:10.1021/je900656c).
Numbers after ± are expanded uncertainties. Values belong to the molecule of their own block, whether it stands above or below them.

Tests used:
[1] = 303.15 K, 101 kPa, Liquid; for viscosity: Capillary tube (Ostwald / Ubbelohde) method; for mass density: Pycnometric method
[2] = wn = mass fraction of the nth substance listed; settings: 303.15 K, 101 kPa, Liquid; for viscosity: Capillary tube (Ostwald / Ubbelohde) method; for mass density: Pycnometric method

viscosity [1]: 1.404 ± 0.023 mPa·s
mass density [1]: 956 ± 2 kg/m3
Structure (SMILES): COCCO [2-methoxyethan-1-ol]

viscosity ([2]; w1 = 0.1): 0.538 ± 0.011 mPa·s
viscosity ([2]; w1 = 0.2): 0.557 ± 0.011 mPa·s
viscosity ([2]; w1 = 0.3): 0.577 ± 0.011 mPa·s
viscosity ([2]; w1 = 1): 1.404 ± 0.023 mPa·s
mass density ([2]; w1 = 0.1): 798 ± 1 kg/m3
mass density ([2]; w1 = 0.2): 817 ± 2 kg/m3
mass density ([2]; w1 = 0.3): 833 ± 2 kg/m3
mass density ([2]; w1 = 1): 956 ± 2 kg/m3
Structure (SMILES): COCCO [2-methoxyethan-1-ol] + CO

viscosity [1]: 0.523 ± 0.01 mPa·s
mass density [1]: 782 ± 1 kg/m3
Structure (SMILES): CO [methanol]

viscosity ([2]; w2 = 0): 0.523 ± 0.01 mPa·s
mass density ([2]; w2 = 0): 782 ± 1 kg/m3
Structure (SMILES): CO [methanol] + COCCO
